Test results from patent publication US7189391B2, “Method of in vitro preconditioning healthy donor's myoblasts before transplantation thereof in compatible patients suffering of myopathies like muscular dystrophy, for improving transplantation success” (Université Laval, priority 1996, dated 2007).

Key:
myoblasts = assay: Migration of transplanted myoblasts cultured with concanavalin A, anterior tibialis muscle of mice; format: in vivo, mouse; settings: CMVLacZ myoblasts cultured 2 days with 20 μg/ml concanavalin A
Experimental: Myoblasts infected with a retrovirus expressing a beta-galactosidase gene have been cultured for four days in the presence or absence of 20 μg/ml concanavalin A, a lectine which stimulates the expression of metalloproteases. These myoblasts were then injected in one single site of the anterior tibialis muscle of eight mice, in order to verify the degree with which the transplanted cells are capable of migrating through the recipient tissue. After thirty days, mice were sacrificed and the muscle tissue was harvested, frozen and 10 μm thick slices were mounted on slides. […] Therefore, the presence of metalloproteases in the preconditioning medium or during the transplantation is beneficial to the spreading of the transplanted cells from the site of the injection through the recipient muscle tissue.
First experiment: Myoblasts obtained from CMVLacZ mice (expressing a Beta-galactosidase gene) were cultured for two (2) days in the presence of twenty (20) μg/ml concanavalin A, a lectine which stimulates the expression of metalloproteases. When these myoblasts were injected in the anterior tibialis muscle of recipient mice, the migration of transplanted cells was increased by three (3) fold comparatively to myoblasts having not received the concanavalin treatment.

[1] = test system: primary cultures of myoblasts; assay: Transplantation of TnI-βGal myoblasts cultured with phorbol ester (TPA); format: in vivo, mouse; settings: TPA 100 ng/ml, 2 days culture, n=5 mice
Experimental: Imm 7 neo: expresses neomycin. Imm 7 Matrilysine: expresses neomycin and matrilysine. Tn I βgal: untreated transgenic mouse myoblasts expressing β-Gal. Tn I βGal+TPA: transgenic mouse myoblasts/β-Gal treated with phorbol ester.
Second experiment: primary cultures of myoblasts were obtained from transgenic mice (TnI-βGal+TPA). Myoblasts were cultured for two (2) days in the presence of phorbol ester (TPA 100 ng/ml) which also stimulates the expression metalloproteases.

mdx mice [2] = assay: Intramuscular injections of bFGF after myoblast transplantation in mdx mice; format: in vivo, mouse; settings: intramuscular injections of bFGF vs HBSS control
Experimental: (§1) The mdx mice were divided in three groups. Six mdx mice of one group were grafted in both tibialis anterior (TA) muscles: myoblasts grown with bFGF were injected in the left TA and myoblasts grown without bFGF were injected in the right TA. Myoblasts grown without bFGF were injected in only the left TA of six other mdx mice. These six mdx mice were then injected intramuscularly four times (after grafting 0, +1, +4 and +6 days) either with 10 μl of bFGF (100 ng/ml, 3 mice) or with 10 μl of HBSS (3 mice). The last five mice were grafted in both TA muscle with normal CD1 mouse myoblasts infected with replication defective retroviral vector LNPOZC7 (gift from Dr C. Cepko, Harvard, Boston, Mass.) which contains the LacZ gene. The left TA muscles were injected with 4 million myoblasts grown with bFGF, while the right TA muscles were injected with 4 million myoblasts grown without bFGF. Three days after grafting, these 5 mice were sacrificed to detect the number of β-galactosidase positive cells which survived in each TA muscle. The numbers of β-galactosidase positive cells were counted in 8 μm sections obtained at every 160 μm throughout the muscle. The total number of cells counted was multiplied by 20 to obtain an estimate of the number of surviving cells and a correction was made to account for the percentage of unlabelled cells in cultures with and without bFGF. […]

mdx mice [3] = assay: Survival of retrovirally labelled myoblasts 3 days after transplantation in TA muscle; format: in vivo, mouse; settings: myoblasts grown with bFGF, 4×10^6 cells injected
Experimental: as §1

[4] = test system: primary myoblast cultures; assay: Effects of bFGF on primary myoblast culture (cell count, desmin staining); format: cell-based, mouse
Text: Primary myoblast cultures were established from muscle biopsies of newborn transgenic mice^26. The founder mouse (TnI Lac Z1/29) was provided by Dr. Hasting (McGill University, Montreal, Canada) onto the CD1 background and was reproduced in our laboratory. This transgenic mouse expresses the β-galactosidase gene under the control of the promoter of the quail fast skeletal muscle troponin I gene^16. […] Before starting myoblast cultures, it was necessary to identify transgenic newborns by X-gal staining of a small muscle biopsy because heterozygote transgenic mice were used as parents. Myogenic cells were released from skeletal muscle fragments of the transgenic newborns by serial enzyme treatments. First, a one hour digestion was done with 600 U/ml collagenase (Sigma, St. Louis, Mo., USA). This was followed by a 30 minute incubation in Hanck's balanced salt solution (HBSS) containing 0.1% w/v trypsin (Gibco Lab, Grand Island, N.Y., USA). Satellite cells were placed in 75 cm^2 culture flasks (Coster, Cambridge, Mass., USA) in proliferating medium, i.e. 199 medium (Gibco Lab.) with 15% fetal bovine serum (Gibco Lab.), 1% penicillin (10,000 U/ml) and 1% streptomycin (10,000 U/ml).
One day after starting culture, the culture medium of some flasks was replaced by medium containing 100 ng/ml human recombinant bFGF (Sigma). Three days after starting culture, myoblasts were detached from the flasks with 0.1% trypsin followed by three suspensions in HBSS and centrifugations (6500 RPM, 5 minutes). The final cell pellet was diluted in only 40 μl of HBSS.
The primary cultures were washed with PBS and fixed with 100% methanol at −4° C. They were then washed again 3 times with PBS and incubated 1 hr with a mAb anti-human desmin (Dako, Copenhagen, Denmark) diluted 1/50 with PBS containing 1% blocking serum (i.e. 0.33% rabbit serum, 0.33% horse serum and 0.33 fetal calf serum). They were washed 3 times with PBS with 1% blocking serum and incubated 1 hr with a 1/100 dilution (in PBS with 1% blocking serum) of a rabbit anti-mouse immunoglobulin (Dako).
To try to understand the beneficial effects of bFGF on myoblast transplantation, we examined the effect of a short stimulation (2 days) with 100 ng/ml bFGF on primary myoblast cultures. The total number of cells in each flask was not significant different (31.9±6.8×10^6 with bFGF n=5, 30.0±5.8×10^6 without FGF n=9, unpaired t-test: p=0.573). […] In these cultures, there was no difference in the percentage of myogenic nuclei (nuclei in myoblasts and in myotubes) between the two groups of cultures (Table 3, line 1). More myogenic cells were however fused in the absence of bFGF (Table 3, line 2). There was an higher percentage of the total nuclei (including myoblasts, myotubes and fibroblasts) which were myoblast nuclei in cultures containing bFGF (Table 3, line 3). The increase of myoblasts was more clear when the percentage of myoblasts was calculated among mononuclear cells (excluding the myotubes) (Table 3, lines 4 and 5). This was however only a 35% increase.

[5] = with bFGF 100 ng/ml, 2 days, mean ± SD

## concanavalin A
myoblasts
  increase of migration of transplanted cells vs untreated myoblasts: 3 fold

## CCCCCCCCCCCCCC(=O)O[C@@H]1[C@@H](C)[C@@]2(O)[C@@H](C=C(CO)C[C@]3(O)C(=O)C(C)=C[C@@H]23)[C@@H]2C(C)(C)[C@]12OC(C)=O [TPA, phorbol ester]
[1]
  area of generated fibers vs non-treated preparation: four fold greater
  fibers generated vs non-treated preparation: four times more fibers

## basic fibroblast growth factor [bFGF]
Mdx mice [2]
  difference in the percentage of hybrid or donor muscle fibers vs HBSS injections: No significant difference
Mdx mice [3]; left TA muscles, 5 mice
  number of β-galactosidase positive cells 3 days after transplantation: 3.29±1.54×10^5 cells
Mdx mice [3]
  % of the injected cells surviving at 3 days: 8.2%
[4]; 2 days with 100 ng/ml bFGF, n=5
  total number of cells in each flask: 31.9±6.8×10^6
[4]; 2 days with bFGF vs without
  increase of the percentage of myoblasts among mononuclear cells: 35%
[4]; [5]
  % myoblast nuclei relative to non myotube nuclei: 32.2 ± 4.1%
  % myoblast nuclei relative to total nuclei: 30.9 ± 3.8%
  % of myoblast and myotube nucleic relative to total nuclei: 35.1 ± 4.8%
  % of myotube nuclei relative to total myotube and myoblast nuclei: 11.5 ± 6.6%
  % of non-myoblast nuclei relative to non myotube nuclei: 67.8 ± 4.1%
